Laboratory results as given in US20140024700A1, “BLOOD-BORNE MIRNAS AS SURROGATE MARKERS OF DRUG EFFICACY FOR CARDIAC CONDITIONS” (miRagen Therapeutics, Inc., priority 2010, published 2014).
Where two headings read alike, the source gives them in different places.

System: plasma miRNAs
Details: 8 weeks
Experimental: To evaluate plasma biomarkers over time, surgically implanted catheters were used for non-invasive bi-weekly blood draws in the Dahl salt-sensitive rat model of congestive heart failure described in Example 1. Changes in plasma miRNA biomarkers with disease progression and therapeutic treatment with an LNA-modified antisense oligonucleotide targeting miR-208a (M−10101; SEQ ID NO: 12) were evaluated. The flowing experimental groups were tested:
The M-10591 oligonucleotide (SEQ ID NO:13) targets miR-67 from C. elegans, which is not expressed in mammalian tissue, and therefore was used as a control. Dahl salt-sensitive rats were implanted with catheters at week zero and baseline blood was taken. Following catheter implant surgery, high-salt diet was initiated. One week following the initiation of the 4.0% NaCl diet, rats were dosed subcutaneously (s.c.) with saline or antimiRs at 25 mg/kg once every 2 weeks. On alternating weeks (non-injection weeks) 1.5 mls of blood was drawn from the catheter for plasma isolation. Animals were sacrificed 8 weeks after the initial injection.
Plasma and tissue molecular endpoints were evaluated using Taqman RT-PCR assays. Specifically, RNA from plasma samples was isolated using Trizol LS (Invitrogen). Synthetic C. elegans miRNA sequences for lin-4 and miR-2 were added at a constant concentration to each sample to monitor purification efficiency and for normalization. Tissue RNA was isolated using standard Trizol RNA isolation. Standard ABI Taqman miRNA assay protocols were used to determine relative miRNA levels.
Changes in plasma miRNA levels between rats suffering from hypertension-induced heart failure (H S/saline group) and rats treated with an antimiR-208a oligonucleotide (HS/M-10101) were assessed at 8 weeks by both miRNA Taqman array card analysis (Tables 2 and 3) and real-time PCR analysis (Table 4).

[1] = Down Regulated, HS-Saline vs. HS-10101, Real Time PCR
[2] = Up-regulated, HS-Saline vs. HS-10101, Real Time PCR
[3] = decreased in response to treatment, HS-saline/HS-10101, array card
[4] = increased in response to treatment, HS-10101/HS-Saline, array card

M-10101: antimiR targeting bases 2 to 17 of mature miR-208a, LNA and DNA linked by phosphorothioate bonds; 5′-CTTTTTGCTCGTCTTA-3′ (SEQ ID NO: 12) (all phosphorothioate, sugars by position and methylation of C not given here; LNA/DNA mixmer; listed as Homo sapiens)
Fold change of plasma hsa-miR-16 [1]: 3.45 fold
Fold change of plasma hsa-miR-20a [1]: 1.92 fold
Fold change of plasma hsa-miR-20b [1]: 2.10 fold
Fold change of plasma hsa-miR-21 [1]: 1.48 fold
Fold change of plasma hsa-miR-22 [1]: 1.50 fold
Fold change of plasma hsa-miR-27a [1]: 2.10 fold
Fold change of plasma hsa-miR-92a [1]: 2.32 fold
Fold change of plasma hsa-miR-93 [1]: 2.87 fold
Fold change of plasma hsa-miR-106b [1]: 2.57 fold
Fold change of plasma hsa-miR-122 [1]: 1.36 fold
Fold change of plasma hsa-miR-126 [1]: 1.30 fold
Fold change of plasma hsa-miR-133a [1]: 1.29 fold
Fold change of plasma hsa-miR-140 [1]: 2.13 fold
Fold change of plasma hsa-miR-150 [1]: 2.07 fold
Fold change of plasma hsa-miR-185 [1]: 2.35 fold
Fold change of plasma hsa-miR-210 [1]: 2.31 fold
Fold change of plasma hsa-miR-223 [1]: 3.02 fold
Fold change of plasma hsa-miR-320 [1]: 3.16 fold
Fold change of plasma hsa-miR-378 [1]: 1.74 fold
Fold change of plasma hsa-miR-378* [1]: 1.38 fold
Fold change of plasma hsa-miR-423-5p [1]: 2.52 fold
Fold change of plasma hsa-miR-499 [1]: 1.26 fold
Fold change of plasma hsa-miR-19b [2]: 2.68 fold
Fold change of plasma hsa-miR-125a-5p [2]: 2.05 fold
Fold change of plasma hsa-miR-143 [2]: 1.53 fold
Fold change of plasma hsa-miR-145 [2]: 2.17 fold
Fold change of plasma hsa-miR-195 [2]: 2.10 fold
Fold change of plasma hsa-miR-199b-5p [2]: 2.39 fold
Fold change of plasma hsa-miR-204 [2]: 2.18 fold
Fold change of plasma hsa-miR-214 [2]: 1.49 fold
Fold change of plasma hsa-let-7b [3]: 1.09 fold
Fold change of plasma hsa-miR-16 [3]: 2.04 fold
Fold change of plasma hsa-miR-17 [3]: 1.41 fold
Fold change of plasma hsa-miR-18a [3]: 2.01 fold
Fold change of plasma hsa-miR-20a [3]: 2.43 fold
Fold change of plasma hsa-miR-20b [3]: 4.87 fold
Fold change of plasma hsa-miR-24 [3]: 1.17 fold
Fold change of plasma hsa-miR-25 [3]: 1.33 fold
Fold change of plasma hsa-miR-26b [3]: 1.98 fold
Fold change of plasma hsa-miR-27a [3]: 2.74 fold
Fold change of plasma hsa-miR-27b [3]: 1.18 fold
Fold change of plasma hsa-miR-29c [3]: 1.34 fold
Fold change of plasma hsa-miR-30a [3]: 1.28 fold
Fold change of plasma hsa-miR-30b [3]: 1.21 fold
Fold change of plasma hsa-miR-92a [3]: 1.20 fold
Fold change of plasma hsa-miR-93 [3]: 2.93 fold
Fold change of plasma hsa-miR-101a [3]: 1.11 fold
Fold change of plasma hsa-miR-103a [3]: 1.16 fold
Fold change of plasma hsa-miR-106b [3]: 2.15 fold
Fold change of plasma hsa-miR-122 [3]: 1.59 fold
Fold change of plasma hsa-miR-125b-5p [3]: 1.51 fold
Fold change of plasma hsa-miR-133a [3]: 2.21 fold
Fold change of plasma hsa-miR-140-5p [3]: 3.23 fold
Fold change of plasma hsa-miR-148a [3]: 2.49 fold
Fold change of plasma hsa-miR-181c [3]: 1.37 fold
Fold change of plasma hsa-miR-182 [3]: 1.39 fold
Fold change of plasma hsa-miR-184 [3]: 1.42 fold
Fold change of plasma hsa-miR-185 [3]: 7.02 fold
Fold change of plasma hsa-miR-188-5p [3]: 1.76 fold
Fold change of plasma hsa-miR-192 [3]: 1.92 fold
Fold change of plasma hsa-miR-195 [3]: 1.73 fold
Fold change of plasma hsa-miR-197 [3]: 1.52 fold
Fold change of plasma hsa-miR-199a-5p [3]: 4.95 fold
Fold change of plasma hsa-miR-203 [3]: 1.13 fold
Fold change of plasma hsa-miR-218 [3]: 1.32 fold
Fold change of plasma hsa-miR-222 [3]: 1.11 fold
Fold change of plasma hsa-miR-223 [3]: 1.88 fold
Fold change of plasma hsa-miR-301a [3]: 1.79 fold
Fold change of plasma hsa-miR-320a [3]: 1.89 fold
Fold change of plasma hsa-miR-324-5p [3]: 1.39 fold
Fold change of plasma hsa-miR-335-5p [3]: 1.07 fold
Fold change of plasma hsa-miR-340-5p [3]: 1.19 fold
Fold change of plasma hsa-miR-365 [3]: 2.61 fold
Fold change of plasma hsa-miR-423-5p [3]: 4.18 fold
Fold change of plasma hsa-miR-451 [3]: 3.28 fold
Fold change of plasma hsa-miR-484 [3]: 1.46 fold
Fold change of plasma hsa-miR-486-5p [3]: 1.49 fold
Fold change of plasma hsa-miR-542-3p [3]: 11.10 fold
Fold change of plasma hsa-miR-744 [3]: 1.83 fold
Fold change of plasma hsa-let-7c [4]: 1.54 fold
Fold change of plasma hsa-let-7e [4]: 1.66 fold
Fold change of plasma hsa-let-7g [4]: 3.02 fold
Fold change of plasma hsa-let-7d [4]: 1.98 fold
Fold change of plasma hsa-miR-19a [4]: 1.90 fold
Fold change of plasma hsa-miR-19b [4]: 3.27 fold
Fold change of plasma hsa-miR-26a [4]: 1.39 fold
Fold change of plasma hsa-miR-28 [4]: 6.61 fold
Fold change of plasma hsa-miR-29a [4]: 1.31 fold
Fold change of plasma hsa-miR-29b [4]: 2.67 fold
Fold change of plasma hsa-miR-30c [4]: 1.37 fold
Fold change of plasma hsa-miR-30e [4]: 1.06 fold
Fold change of plasma hsa-miR-31 [4]: 1.45 fold
Fold change of plasma hsa-miR-99b [4]: 2.63 fold
Fold change of plasma hsa-miR-107 [4]: 5.54 fold
Fold change of plasma hsa-miR-125a-3p [4]: 12.16 fold
Fold change of plasma hsa-miR-125a-5p [4]: 5.34 fold
Fold change of plasma hsa-miR-126 [4]: 1.27 fold
Fold change of plasma hsa-miR-126-5p (miR-126*) [4]: 2.01 fold
Fold change of plasma hsa-miR-128a [4]: 1.75 fold
Fold change of plasma hsa-miR-130a [4]: 2.30 fold
Fold change of plasma hsa-miR-130b [4]: 1.26 fold
Fold change of plasma hsa-miR-138 [4]: 1.08 fold
Fold change of plasma hsa-miR-139-5p [4]: 1.14 fold
Fold change of plasma hsa-miR-142-3p [4]: 25.04 fold
Fold change of plasma hsa-miR-142-5p [4]: 1.98 fold
Fold change of plasma hsa-miR-143 [4]: 8.47 fold
Fold change of plasma hsa-miR-145 [4]: 2.07 fold
Fold change of plasma hsa-miR-146a [4]: 1.17 fold
Fold change of plasma hsa-miR-152 [4]: 2.05 fold
Fold change of plasma hsa-miR-155 [4]: 1.73 fold
Fold change of plasma hsa-miR-181a [4]: 3.00 fold
Fold change of plasma hsa-miR-186 [4]: 1.83 fold
Fold change of plasma hsa-miR-187 [4]: 1.60 fold
Fold change of plasma hsa-miR-191 [4]: 1.23 fold
Fold change of plasma hsa-miR-196b [4]: 11.73 fold
Fold change of plasma hsa-miR-199a-3p [4]: 3.14 fold
Fold change of plasma hsa-miR-204 [4]: 4.61 fold
Fold change of plasma hsa-miR-214 [4]: 1.57 fold
Fold change of plasma hsa-miR-296-5p [4]: 18.29 fold
Fold change of plasma hsa-miR-302a [4]: 2.10 fold
Fold change of plasma hsa-miR-324-3p [4]: 1.07 fold
Fold change of plasma hsa-miR-331-3p [4]: 1.53 fold
Fold change of plasma hsa-miR-339-5p [4]: 2.18 fold
Fold change of plasma hsa-miR-340-3p [4]: 1.86 fold
Fold change of plasma hsa-miR-342-3p [4]: 1.15 fold
Fold change of plasma hsa-miR-375 [4]: 1.32 fold
Fold change of plasma hsa-miR-449a [4]: 2.99 fold
Fold change of plasma hsa-miR-487b [4]: 2.67 fold
Fold change of plasma hsa-miR-532-3p [4]: 1.72 fold
Fold change of plasma hsa-miR-574-3p [4]: 2.20 fold
Fold change of plasma hsa-miR-30d [4]: 1.29 fold
